This note sets out measurements from ChEMBL document CHEMBL1130612, “Exploration of beta-turn scaffolding motifs as components of sialyl Le(X) mimetics and their relevance to P-selectin” (Bioorg Med Chem Lett, 1998).

The assay concerns the target T1, E-selectin (Homo sapiens, UniProt P16581).
T1 sequence (P16581 whole entry): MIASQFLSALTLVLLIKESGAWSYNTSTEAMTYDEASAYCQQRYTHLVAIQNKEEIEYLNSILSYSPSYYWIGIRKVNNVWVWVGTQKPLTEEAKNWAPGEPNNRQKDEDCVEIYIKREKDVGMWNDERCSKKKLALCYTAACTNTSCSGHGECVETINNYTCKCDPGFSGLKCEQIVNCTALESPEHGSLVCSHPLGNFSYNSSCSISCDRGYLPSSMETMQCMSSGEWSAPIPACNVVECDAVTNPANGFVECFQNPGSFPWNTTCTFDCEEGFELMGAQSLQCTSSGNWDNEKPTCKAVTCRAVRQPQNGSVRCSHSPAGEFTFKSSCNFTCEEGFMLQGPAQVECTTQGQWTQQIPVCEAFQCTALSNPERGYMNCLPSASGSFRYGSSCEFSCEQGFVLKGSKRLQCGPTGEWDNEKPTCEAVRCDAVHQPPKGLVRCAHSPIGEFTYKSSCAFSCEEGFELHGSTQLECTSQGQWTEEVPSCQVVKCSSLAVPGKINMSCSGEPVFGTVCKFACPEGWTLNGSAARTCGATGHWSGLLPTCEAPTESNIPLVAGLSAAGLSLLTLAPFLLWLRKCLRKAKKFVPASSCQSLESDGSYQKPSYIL
In words: Compound was evaluated for the Selectin E binding activity.

In general, IC50 refers to the concentration needed to halve the response being measured. A lower IC50 goes with higher potency. As for `CC(=O)N[C@H]1[C@H]([C@H](O)[C@H](O)CO)O[C@@](O[C@H]2[C@@H](O)[C@@H](CO)O[C@@H](O[C@@H]([C@H](O[C@@H]3O[C@@H](C)[C@@H](O)[C@@H](O)[C@@H]3O)[C@H](C=O)NC(C)=O)[C@H](O)CO)[C@@H]2O)(C(=O)O)C[C@@H]1O` [SIALYL LEWIS X], the IC50 is > 10 µM.
